Measured values from the CheMixHub viscosity set.
Several values for one entry are separate records, joined by “and”; a condition that tells them apart may be missing. Equal values may be shown once.

C#CCO
viscosity [mPa·s]
Settings | 303.15 K | 308.15 K | 313.15 K | 318.15 K | 323.15 K
101 kPa | 1.345 | 1.214 | 1.103 | 1.01 | 0.9277
101.32 kPa | – | 1.221 | 1.12 | 1.017 | 0.9331

C1COCO1
viscosity
Settings | 298.15 K | 303.15 K | 308.15 K | 313.15 K | 318.15 K | 323.15 K
101 kPa | 0.587 mPa·s | 0.62 mPa·s | 0.58 mPa·s and 0.513 mPa·s and 0.5128 mPa·s | 0.55 mPa·s | 0.53 mPa·s and 0.458 mPa·s and 0.458 mPa·s | 0.4183 mPa·s and 0.51 mPa·s
101.3 kPa | 0.5919 mPa·s | – | – | 0.5 mPa·s | – | –

CC(=O)c1ccccc1
viscosity
Settings | 303.15 K | 308.15 K | 313.15 K | 323.15 K
100 kPa | 1.455 mPa·s | 1.415 mPa·s | 1.233 mPa·s and 1.269 mPa·s | 1.061 mPa·s
101 kPa | 1.533 mPa·s (2×) and 1.533 mPa·s and 1.533 mPa·s | – | 1.266 mPa·s and 1.266 mPa·s and 1.269 mPa·s | 1.051 mPa·s
101.3 kPa | – | – | 1.317 mPa·s | 1.285 mPa·s

CC(C)OC(C)C
viscosity
Settings | 293.15 K | 298.15 K | 303.15 K | 308.15 K | 313.15 K | 318.15 K | 323.15 K
100 kPa | 0.332 mPa·s | 0.319 mPa·s | 0.304 mPa·s | 0.29 mPa·s and 0.29 mPa·s | 0.274 mPa·s | 0.261 mPa·s | 0.246 mPa·s
101 kPa | – | 0.315 mPa·s | – | – | – | – | –
101.33 kPa | 0.34 mPa·s | 0.322 mPa·s | 0.31 mPa·s | 0.293 mPa·s | 0.279 mPa·s | – | –

CC(N)CN (configuration not stated)
viscosity
Settings | 293.15 K | 298.15 K | 303.15 K | 308.15 K | 313.15 K | 318.15 K | 323.15 K
101 kPa | – | 1.481 mPa·s | 1.314 mPa·s and 1.325 mPa·s | 1.175 mPa·s and 1.192 mPa·s | 1.058 mPa·s and 1.084 mPa·s | 0.9597 mPa·s and 0.9891 mPa·s | 0.9091 mPa·s
101.33 kPa | 1.61 mPa·s | 1.49 mPa·s and 1.47 mPa·s | 1.31 mPa·s and 1.34 mPa·s | 1.19 mPa·s and 1.13 mPa·s | 1.06 mPa·s and 1.06 mPa·s | 0.96 mPa·s and 0.97 mPa·s | –

CCC(C)C(C)C (configuration not stated)
Settings | viscosity [mPa·s]
298.15 K, 101.33 kPa | 0.3898

CCC(O)CC
viscosity [mPa·s]
Settings | 293.15 K | 298.15 K | 303.15 K | 308.15 K | 313.15 K | 318.15 K | 323.15 K
101 kPa | 4.646 | 4.81 | 3.506 | 2.773 | 2.23 | 1.895 | 1.528
101.33 kPa | – | – | 3.852 | – | 2.272 | – | 1.543
